Measured values taken from the supplement of paper PMC10307832.

How the values were obtained:
Assay in all cases: relative viability (nuclei count vs DMSO), 5 days (fraction); higher = more cells survive
[1] = tested on: NCI-H1734
Method in brief: (§1)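 Each reported value is a median over duplicate plates. It expresses relative viability: treated-well nuclei count divided by vehicle-well nuclei count. Lung cancer cell lines in 1536-well plates were dosed by pin tool a day after seeding, alone with one drug or with a fixed anchor-drug dose plus five library-drug doses (not always all listed) in √10 steps, and nuclei were counted after 5 days.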

[2] = tested on: EMC-BAC-2
Method in brief: as §1

[3] = tested on: NCI-H647
Method in brief: as §1

[4] = tested on: NCI-H1915
Method in brief: as §1

[5] = tested on: NCI-H1792
Method in brief: as §1

[6] = tested on: NCI-H2405
Method in brief: as §1

[7] = tested on: LCLC-103H
Method in brief: as §1

[8] = tested on: EPLC-272H
Method in brief: as §1

[9] = tested on: SK-LU-1
Method in brief: as §1

[10] = tested on: NCI-H1395
Method in brief: as §1

[11] = tested on: NCI-H661
Method in brief: as §1

[12] = tested on: NCI-H1975
Method in brief: as §1

[13] = tested on: ABC-1
Method in brief: as §1

[14] = tested on: RERF-LC-KJ
Method in brief: as §1

[15] = tested on: LOU-NH91
Method in brief: as §1

[16] = tested on: 201T
Method in brief: as §1

[17] = tested on: NCI-H1793
Method in brief: as §1

[18] = tested on: UMC-11
Method in brief: as §1

[19] = tested on: NCI-H23
Method in brief: as §1

[20] = tested on: NCI-H1651
Method in brief: as §1

[21] = tested on: NCI-H2023
Method in brief: as §1

[22] = tested on: NCI-H1437
Method in brief: as §1

[23] = tested on: HCC-78
Method in brief: as §1

## O=c1[nH]c2ccccc2n1C1CCN(CCCC(c2ccc(F)cc2)c2ccc(F)cc2)CC1 [Pimozide] + Cc1nc(Nc2ncc(C(=O)Nc3c(C)cccc3Cl)s2)cc(N2CCN(CCO)CC2)n1 [Dasatinib] (partner 0.075 µM)
[1]; first compound 0.08 µM
  relative viability: 0.495
[1]; first compound 0.253 µM
  relative viability: 0.454
[1]; first compound 2.53 µM
  relative viability: 0.529
[1]; first compound 8 µM
  relative viability: 0.493
[2]; first compound 0.08 µM
  relative viability: 0.351
[2]; first compound 0.253 µM
  relative viability: 0.274
[2]; first compound 0.8 µM
  relative viability: 0.331
[2]; first compound 2.53 µM
  relative viability: 0.285
[2]; first compound 8 µM
  relative viability: 0.218
[3]; first compound 0.08 µM
  relative viability: 0.41
[3]; first compound 0.253 µM
  relative viability: 0.233
[3]; first compound 0.8 µM
  relative viability: 0.198
[3]; first compound 2.53 µM
  relative viability: 0.179
[3]; first compound 8 µM
  relative viability: 0.162
[4]; first compound 0.08 µM
  relative viability: 0.328
[4]; first compound 0.253 µM
  relative viability: 0.246
[4]; first compound 0.8 µM
  relative viability: 0.214
[4]; first compound 2.53 µM
  relative viability: 0.322
[4]; first compound 8 µM
  relative viability: 0.303
[5]; first compound 0.08 µM
  relative viability: 0.89
[5]; first compound 0.253 µM
  relative viability: 0.823
[5]; first compound 0.8 µM
  relative viability: 0.769
[5]; first compound 2.53 µM
  relative viability: 0.973
[5]; first compound 8 µM
  relative viability: 0.849
[6]; first compound 0.08 µM
  relative viability: 0.219
[6]; first compound 0.253 µM
  relative viability: 0.228
[6]; first compound 0.8 µM
  relative viability: 0.198
[6]; first compound 2.53 µM
  relative viability: 0.187
[6]; first compound 8 µM
  relative viability: 0.188
[7]; first compound 0.08 µM
  relative viability: 0.531
[7]; first compound 0.253 µM
  relative viability: 0.373
[7]; first compound 0.8 µM
  relative viability: 0.371
[7]; first compound 2.53 µM
  relative viability: 0.518
[7]; first compound 8 µM
  relative viability: 0.549
[8]; first compound 0.08 µM
  relative viability: 0.298
[8]; first compound 0.253 µM
  relative viability: 0.322
[8]; first compound 0.8 µM
  relative viability: 0.385
[8]; first compound 2.53 µM
  relative viability: 0.293
[8]; first compound 8 µM
  relative viability: 0.215
[9]; first compound 0.08 µM
  relative viability: 0.2
[9]; first compound 0.253 µM
  relative viability: 0.21
[9]; first compound 0.8 µM
  relative viability: 0.184
[9]; first compound 2.53 µM
  relative viability: 0.186
[9]; first compound 8 µM
  relative viability: 0.168
[10]; first compound 0.08 µM
  relative viability: 0.388
[10]; first compound 0.253 µM
  relative viability: 0.382
[10]; first compound 0.8 µM
  relative viability: 0.355
[10]; first compound 2.53 µM
  relative viability: 0.403
[10]; first compound 8 µM
  relative viability: 0.361
[11]; first compound 0.08 µM
  relative viability: 0.782
[11]; first compound 0.253 µM
  relative viability: 0.828
[11]; first compound 0.8 µM
  relative viability: 0.826
[11]; first compound 2.53 µM
  relative viability: 0.725
[11]; first compound 8 µM
  relative viability: 0.611
[12]; first compound 0.08 µM
  relative viability: 0.415
[12]; first compound 0.253 µM
  relative viability: 0.342
[12]; first compound 0.8 µM
  relative viability: 0.345
[12]; first compound 2.53 µM
  relative viability: 0.346
[12]; first compound 8 µM
  relative viability: 0.294
[13]; first compound 0.08 µM
  relative viability: 0.521
[13]; first compound 0.253 µM
  relative viability: 0.48
[13]; first compound 0.8 µM
  relative viability: 0.518
[13]; first compound 2.53 µM
  relative viability: 0.388
[13]; first compound 8 µM
  relative viability: 0.396
[14]; first compound 0.08 µM
  relative viability: 0.775
[14]; first compound 0.253 µM
  relative viability: 0.611
[14]; first compound 0.8 µM
  relative viability: 0.696
[14]; first compound 2.53 µM
  relative viability: 0.66
[14]; first compound 8 µM
  relative viability: 0.501
[15]; first compound 0.08 µM
  relative viability: 0.44
[15]; first compound 0.253 µM
  relative viability: 0.564
[15]; first compound 0.8 µM
  relative viability: 0.537
[15]; first compound 2.53 µM
  relative viability: 0.572
[15]; first compound 8 µM
  relative viability: 0.579
[16]; first compound 0.08 µM
  relative viability: 0.573
[16]; first compound 0.253 µM
  relative viability: 0.527
[16]; first compound 0.8 µM
  relative viability: 0.564
[16]; first compound 2.53 µM
  relative viability: 0.516
[16]; first compound 8 µM
  relative viability: 0.52
[17]; first compound 0.253 µM
  relative viability: 0.388
[17]; first compound 0.8 µM
  relative viability: 0.343
[17]; first compound 2.53 µM
  relative viability: 0.391
[17]; first compound 8 µM
  relative viability: 0.35
[18]; first compound 0.08 µM
  relative viability: 0.46
[18]; first compound 0.253 µM
  relative viability: 0.45
[18]; first compound 0.8 µM
  relative viability: 0.468
[18]; first compound 2.53 µM
  relative viability: 0.431
[18]; first compound 8 µM
  relative viability: 0.424
[19]; first compound 0.08 µM
  relative viability: 0.887
[19]; first compound 0.253 µM
  relative viability: 0.84
[19]; first compound 0.8 µM
  relative viability: 0.71
[19]; first compound 2.53 µM
  relative viability: 0.679
[19]; first compound 8 µM
  relative viability: 0.802
[20]; first compound 0.08 µM
  relative viability: 0.436
[20]; first compound 0.253 µM
  relative viability: 0.455
[20]; first compound 0.8 µM
  relative viability: 0.388
[20]; first compound 2.53 µM
  relative viability: 0.399
[20]; first compound 8 µM
  relative viability: 0.391
[21]; first compound 0.08 µM
  relative viability: 0.497
[21]; first compound 0.253 µM
  relative viability: 0.547
[21]; first compound 0.8 µM
  relative viability: 0.518
[21]; first compound 2.53 µM
  relative viability: 0.438
[21]; first compound 8 µM
  relative viability: 0.451
[22]; first compound 0.08 µM
  relative viability: 0.483
[22]; first compound 0.253 µM
  relative viability: 0.43
[22]; first compound 0.8 µM
  relative viability: 0.402
[22]; first compound 2.53 µM
  relative viability: 0.289
[22]; first compound 8 µM
  relative viability: 0.249
[23]; first compound 0.08 µM
  relative viability: 0.387
[23]; first compound 0.8 µM
  relative viability: 0.327
[23]; first compound 2.53 µM
  relative viability: 0.345
[23]; first compound 8 µM
  relative viability: 0.373
